According to patent publication US20120172339A1, “ANGIOGENIC RESORCINOL DERIVATIVES” (Northeastern University, priority 2009, published 2012):
Where two headings read alike, the source gives them in different places.

Columns and labels:
CB1 cannabinoid receptor = CB1 cannabinoid receptor (Homo sapiens, UniProt P21554); assay: CB1 receptor binding affinity
Experimental: (§1) Some disclosed compounds were tested for CB1 and CB2 receptors binding affinity (Table 5). As used herein “binding affinity” is represented by the Ki value. The Ki value is the affinity constant and describes the affinity of the compound for the receptor. […] A detailed description of the methods used to test “binding affinity” of compounds is given in Makriyannis, et al., US 2007, 0135388 and in Papahatjis, et al. J. Med. Chem. (2007) 4048, the content of each of which is hereby incorporated by reference.

CB2 cannabinoid receptor = CB2 cannabinoid receptor (Homo sapiens, UniProt P34972); assay: CB2 receptor binding affinity
CB2 cannabinoid receptor, sequence (P34972 whole entry): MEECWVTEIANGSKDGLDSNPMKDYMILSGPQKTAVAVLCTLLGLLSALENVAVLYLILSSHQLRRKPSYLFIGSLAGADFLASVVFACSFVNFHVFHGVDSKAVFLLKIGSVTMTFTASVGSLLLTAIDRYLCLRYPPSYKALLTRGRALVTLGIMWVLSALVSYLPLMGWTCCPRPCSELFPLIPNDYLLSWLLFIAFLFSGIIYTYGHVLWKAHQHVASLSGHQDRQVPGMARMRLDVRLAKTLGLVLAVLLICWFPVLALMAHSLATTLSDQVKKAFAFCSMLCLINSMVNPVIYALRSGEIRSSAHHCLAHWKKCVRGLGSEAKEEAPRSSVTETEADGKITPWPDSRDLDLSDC
Experimental: as §1

CB1-KO-HUVEC cells = assay: MMP (matrix metalloproteinase) activity in CB1-KO-HUVEC; format: cell-based, human; details: FIGS. 7 and 8, read-out: EC50 for induction of MMP activity
Description: For aspects disclosed herein, promotion of angiogenic responses under in vitro and ex vivo conditions as well as increasing in MMP (matrix metalloproteinase) activity, correlates well with the ability of anandamide and its synthetic analog (R)-methanandamide to bind to and modulate the putative “non CB1/non CB2 anandamide receptor”. Thus, the compounds described herein where tested using in vitro angiogenesis assays (cord formation by endothelial cells in extracellular matrix mimicking matrigel), ex vivo angiogenesis assay (sprouting or blood capillary formation under ex vivo conditions) as well as for MMP activity in CB1 receptor knock out human umbilical vein endothelial cells (HUVEC) (CB1-KO-HUVEC).
Some disclosed compounds were tested using in vitro angiogenesis assays (cord formation by endothelial cells in extracellular matrix mimicking matrigel, Table 4), ex vivo angiogenesis assay (sprouting or blood capillary formation under ex vivo conditions, Table 4) as well as for MMP (matrix metalloproteinase) activity in CB1 receptor knock out human umbilical vein endothelial cells (HUVEC) (CB1-KO-HUVEC, Figures A and B). Stimulation of angiogenic responses under in vitro and ex vivo conditions as well as increasing in MMP activity, correlates well with the ability of the compound to bind to and modulate the putative “non CB1/non CB2 anandamide receptor”. […] A detailed description of the angiogenesis and MMP activity assays is given in Mukhopadhyay (US 2007, 0244200, and Balas, et al., J. Med. Chem. (2009) ASAP the content of each of which is hereby incorporated by reference.

CB1 cannabinoid receptor, sequence (P21554 whole entry): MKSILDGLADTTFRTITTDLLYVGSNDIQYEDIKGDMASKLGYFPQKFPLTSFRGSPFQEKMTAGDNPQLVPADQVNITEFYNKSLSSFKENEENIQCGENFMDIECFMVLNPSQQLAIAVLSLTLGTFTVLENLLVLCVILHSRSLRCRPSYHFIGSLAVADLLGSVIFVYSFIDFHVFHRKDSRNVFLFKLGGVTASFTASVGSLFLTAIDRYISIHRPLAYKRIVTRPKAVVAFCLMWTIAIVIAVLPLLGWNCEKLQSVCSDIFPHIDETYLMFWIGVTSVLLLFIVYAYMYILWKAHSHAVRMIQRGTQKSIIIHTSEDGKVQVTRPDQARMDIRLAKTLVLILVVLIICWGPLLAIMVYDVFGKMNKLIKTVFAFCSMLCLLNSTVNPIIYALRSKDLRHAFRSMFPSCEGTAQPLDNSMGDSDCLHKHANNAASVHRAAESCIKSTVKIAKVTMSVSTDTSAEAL

## C=C(C)[C@@H]1CCC(C)=C[C@H]1c1c(O)cc(O)cc1O (relative stereo) [Compound 3.7, (−)-2-[3-3,4-trans-p-Menthadien-(1,8)-yl]-5-hydroxyresorcinol]
CB1 cannabinoid receptor; read-out: CB1 Receptor Ki
  Ki: 21.5 µM
CB2 cannabinoid receptor; read-out: CB2 Receptor Ki
  Ki: 41.7 µM

## C=C(C)[C@@H]1CCC(C)=C[C@H]1c1c(O)cc(O)cc1F (relative stereo) [Compound 4.8, (−)-4-[3-3,4-trans-p-Menthadien-(1,8)-yl]-5-flouororesorcinol]
CB1 cannabinoid receptor; read-out: CB1 Receptor Ki
  Ki: 4.15 µM
CB2 cannabinoid receptor; read-out: CB2 Receptor Ki
  Ki: 7.21 µM
other
  melting point: 105 to 106 °C

## CCCCCc1cc(O)c([C@H]2C=C(C)[C@H]3C[C@@H]2C3(C)C)c(O)c1 [Compound 8.2, (+)-2-[(1R, 4S, 5S)-2,6,6-trimethylbicyclo[3.1.1]hept-2-en-4-yl]-5-pentyl-resorcinol]
CB1-KO-HUVEC cells; Homo sapiens
  EC50: 0.05 to 0.07 µM

## C=C(C)[C@@H]1CCC(C)=C[C@H]1c1c(O)cc(I)cc1O (relative stereo) [Compound 3.11, (−)-2-[3-3,4-trans-p-Menthadien-(1,8)-yl]-5-iodoresorcinol]
CB1 cannabinoid receptor; read-out: CB1 Receptor Ki
  Ki: 5.13 µM
CB2 cannabinoid receptor; read-out: CB2 Receptor Ki
  Ki: 2.19 µM
other
  melting point: 128 to 130 °C

## [2H]C([2H])([2H])CCc1cc(O)cc(O)c1[C@@H]1C=C(C)CC[C@H]1C(=C)C (relative stereo) [Compound 4.5, (−)-4-[3-3,4-trans-p-Menthadien-(1,8)-yl]-5-[3′-(^2H3)-propyl]resorcinol]
CB1 cannabinoid receptor; read-out: CB1 Receptor Ki
  Ki: > 20 µM
CB2 cannabinoid receptor; read-out: CB2 Receptor Ki
  Ki: 19 µM

## CCCCCc1cc(O)c([C@@H]2C=C(C)[C@@H]3C[C@H]2C3(C)C)c(O)c1 [Compound 11.2, (−)-2-[(1S, 4R, 5R)-2,6,6-trimethylbicyclo[3.1.1]hept-2-en-4-yl]-5-pentyl-resorcinol]
CB1 cannabinoid receptor; read-out: CB1 Receptor Ki
  Ki: 0.837 µM
CB2 cannabinoid receptor; read-out: CB2 Receptor Ki
  Ki: 0.565 µM

## C=C(C)[C@@H]1CCC(C)=C[C@H]1c1c(O)cc(O)cc1CCCCCCC (relative stereo) [Compound 4.3, (−)-4-[3-3,4-trans-p-Menthadien-(1,8)-yl]-5-heptylresorcinol]
CB1 cannabinoid receptor
  Ki: 0.25 µM
CB2 cannabinoid receptor
  Ki: 0.398 µM

## C=C(C)[C@@H]1CCC(C)=C[C@H]1c1c(O)cc(CCCCCCC)c([C@@H]2C=C(C)CC[C@H]2C(=C)C)c1O (relative stereo) [Compound 5.3, 2,4-bis-[3-3,4-trans-p-Menthadien-(1,8)-yl]-5-heptylresorcinol]
CB1-KO-HUVEC cells; Homo sapiens
  EC50: 0.05 to 0.07 µM
CB1 cannabinoid receptor; read-out: CB1 Receptor Ki
  Ki: > 10 µM
CB2 cannabinoid receptor; read-out: CB2 Receptor Ki
  Ki: > 10 µM

## C=C(C)[C@@H]1CCC(C)=C[C@H]1c1c(O)cc(CCCCCCC)cc1O (relative stereo) [Compound 3.3, (−)-2-[3-3,4-trans-p-Menthadien-(1,8)-yl]-5-heptylresorcinol]
CB1 cannabinoid receptor
  Ki: 0.651 µM
CB2 cannabinoid receptor
  Ki: 1.42 µM

## C=C(C)[C@@H]1CCC(C)=C[C@H]1c1c(O)cc(C)cc1O (relative stereo) [Compound 3.1, (−)-2-[3-3,4-trans-p-Menthadien-(1,8)-yl]-5-methylresorcinol]
CB1 cannabinoid receptor; read-out: CB1 Receptor Ki
  Ki: 16.7 µM
CB2 cannabinoid receptor; read-out: CB2 Receptor Ki
  Ki: 47.7 µM

## CCCCCc1cc(O)cc(O)c1[C@H]1C=C(C)[C@H]2C[C@@H]1C2(C)C [Compound 9.2, (+)-4-[(1R, 4S, 5S)-2,6,6-trimethylbicyclo[3.1.1]hept-2-en-4-yl]-5-pentyl-resorcinol]
CB1 cannabinoid receptor; read-out: CB1 Receptor Ki
  Ki: 9.25 µM
CB2 cannabinoid receptor; read-out: CB2 Receptor Ki
  Ki: 4.94 µM

## CCCCCc1cc(O)cc(O)c1[C@@H]1C=C(C)[C@@H]2C[C@H]1C2(C)C [Compound 12.2]
CB1 cannabinoid receptor; read-out: CB1 Receptor Ki
  Ki: 10.1 µM
CB2 cannabinoid receptor; read-out: CB2 Receptor Ki
  Ki: 19 µM

## C=C(C)[C@@H]1CCC(C)=C[C@H]1c1c(O)cc(CC(=O)OC)cc1O (relative stereo) [Compound 3.14, (−)-2-[3-3,4-trans-p-Menthadien-(1,8)-yl]-5-(2-methoxy-2-oxoethyl)resorcinol]
CB1 cannabinoid receptor; read-out: CB1 Receptor Ki
  Ki: 2.37 µM
CB2 cannabinoid receptor; read-out: CB2 Receptor Ki
  Ki: 0.62 µM

## C=C(C)[C@@H]1CCC(C)=C[C@H]1c1c(O)cc(/C=C\CCCCC)cc1O [Compound 3.6, (−)-2-[3-3,4-trans-p-Menthadien-(1,8)-yl]-5-(1,2-cis-hepten-1-yl)resorcinol]
CB1-KO-HUVEC cells; Homo sapiens
  EC50: 0.05 to 0.07 µM

## [2H]C([2H])([2H])CCc1cc(O)c([C@@H]2C=C(C)CC[C@H]2C(=C)C)c(O)c1 (relative stereo) [Compound 3.5, (−)-2-[3-3,4-trans-p-Menthadien-(1,8)-yl]-5-[3′-(^2H3)-propyl]resorcinol]
CB1 cannabinoid receptor; read-out: CB1 Receptor Ki
  Ki: 8.39 µM
CB2 cannabinoid receptor; read-out: CB2 Receptor Ki
  Ki: 2.58 µM

## C=C(C)[C@@H]1CCC(C)=C[C@H]1c1c(O)cc(O)cc1CC#N
other
  melting point: 131 to 133 °C

## C=C(C)[C@@H]1CCC(C)=C[C@H]1c1c(O)cc(CN=[N+]=[N-])cc1O (relative stereo) [Compound 3.15, (−)-2-[3-3,4-trans-p-Menthadien-(1,8)-yl]-5-(azidomethyl)resorcinol]
CB1-KO-HUVEC cells; Homo sapiens
  EC50: 0.05 to 0.07 µM
CB1 cannabinoid receptor; read-out: CB1 Receptor Ki
  Ki: 3.56 µM
CB2 cannabinoid receptor; read-out: CB2 Receptor Ki
  Ki: 2.03 µM

## C=C(C)[C@@H]1CCC(C)=C[C@H]1c1c(O)cc(O)cc1CCCCC (relative stereo) [Compound 4.2, (−)-4-[3-3,4-trans-p-Menthadien-(1,8)-yl]-5-pentylresorcinol, reference compound]
CB1 cannabinoid receptor
  Ki: 4.78 µM
CB2 cannabinoid receptor
  Ki: 9.64 µM

## C=C(C)[C@@H]1CCC(C)=C[C@H]1c1c(O)cc(O)cc1Cl (relative stereo) [Compound 4.9, (−)-4-[3-3,4-trans-p-Menthadien-(1,8)-yl]-5-chlororesorcinol]
CB1 cannabinoid receptor; read-out: CB1 Receptor Ki
  Ki: 3.18 µM
CB2 cannabinoid receptor; read-out: CB2 Receptor Ki
  Ki: 4.97 µM
other
  melting point: 101 to 103 °C

## C=C(C)[C@@H]1CCC(C)=C[C@H]1c1c(O)cc(O)cc1Br (relative stereo) [Compound 4.10, (−)-4-[3-3,4-trans-p-Menthadien-(1,8)-yl]-5-bromoresorcinol]
CB1 cannabinoid receptor; read-out: CB1 Receptor Ki
  Ki: 7.46 µM
CB2 cannabinoid receptor; read-out: CB2 Receptor Ki
  Ki: 13.3 µM

## CCCCC/C=C\C/C=C\C/C=C\C/C=C\CCCC(=O)N[C@H](C)CO [(R)-methanandamide, reference compound]
CB1-KO-HUVEC cells
  EC50: ~0.042 µM

## C=C(C)[C@@H]1CCC(C)=C[C@H]1c1c(O)cc(O)cc1CCCCBr (relative stereo) [Compound 4.16]
CB1 cannabinoid receptor; read-out: CB1 Receptor Ki
  Ki: 12.5 µM
CB2 cannabinoid receptor; read-out: CB2 Receptor Ki
  Ki: 5.73 µM

## C=C(C)[C@@H]1CCC(C)=C[C@H]1c1c(O)cc(CCCCBr)cc1O (relative stereo) [Compound 3.16, (−)-2-[3-3,4-trans-p-Menthadien-(1,8)-yl]-5-(4-bromobutyl)resorcinol]
CB1 cannabinoid receptor
  Ki: 0.192 µM
CB2 cannabinoid receptor
  Ki: 0.059 µM

## C=C(C)[C@@H]1CCC(C)=C[C@H]1c1c(C)cc(O)cc1O (relative stereo) [Compound 4.1, (−)-4-[3-3,4-trans-p-Menthadien-(1,8)-yl]-5-methylresorcinol]
CB1 cannabinoid receptor; read-out: CB1 Receptor Ki
  Ki: 10 µM
CB2 cannabinoid receptor; read-out: CB2 Receptor Ki
  Ki: 31.1 µM

## C=C(C)[C@@H]1CCC(C)=C[C@H]1c1c(O)cc(O)cc1I (relative stereo) [Compound 4.11, (−)-4-[3-3,4-trans-p-Menthadien-(1,8)-yl]-5-iodoresorcinol]
CB1-KO-HUVEC cells; Homo sapiens
  EC50: 0.05 to 0.07 µM
CB1 cannabinoid receptor; read-out: CB1 Receptor Ki
  Ki: 13.1 µM
CB2 cannabinoid receptor; read-out: CB2 Receptor Ki
  Ki: 10.5 µM

## C=C(C)[C@@H]1CCC(C)=C[C@H]1c1c(O)cc(F)cc1O (relative stereo) [Compound 3.8, (−)-2-[3-3,4-trans-p-Menthadien-(1,8)-yl]-5-flouororesorcinol]
CB1-KO-HUVEC cells; Homo sapiens
  EC50: 0.05 to 0.07 µM
CB1 cannabinoid receptor; read-out: CB1 Receptor Ki
  Ki: 14.6 µM
CB2 cannabinoid receptor; read-out: CB2 Receptor Ki
  Ki: 43.4 µM

## C=C(C)[C@@H]1CCC(C)=C[C@H]1c1c(O)cc(CBr)cc1O (relative stereo) [Compound 3.12, (−)-2-[3-3,4-trans-p-Menthadien-(1,8)-yl]-5-(bromomethyl)resorcinol]
CB1 cannabinoid receptor; read-out: CB1 Receptor Ki
  Ki: 2.2 µM
CB2 cannabinoid receptor; read-out: CB2 Receptor Ki
  Ki: 10.8 µM

## C=C(C)[C@@H]1CCC(C)=C[C@H]1c1c(O)cc(CC#N)cc1O (relative stereo) [Compound 3.13, (−)-2-[3-3,4-trans-p-Menthadien-(1,8)-yl]-5-(cyanomethyl)resorcinol]
CB1 cannabinoid receptor; read-out: CB1 Receptor Ki
  Ki: 1.44 µM
CB2 cannabinoid receptor; read-out: CB2 Receptor Ki
  Ki: 4.2 µM
